Among the data in ChEMBL document CHEMBL1150447, “Nitrogen and sulfur analogues of the secoCI alkylating agent: Synthesis and cytotoxicity” (Bioorg Med Chem Lett, 1996) are IC50 values, retold here.

SMILES strings stand for the structures.

The IC50 is the concentration that inhibits the measured activity by half. Read a low IC50 as inhibition by little substance.

Holding throughout (type): functional, cell-based
For one assay, the system named is CHO-AA8. The experiment in a line: Compound was evaluated for cytotoxicity against CHO AA8 cell lines for 4 hr at pH-7.4. As to conditions: Cricetulus griseus, CHO-AA8, 4 h.
Another assay concerns EMT6. The experiment in a line: Compound was evaluated for cytotoxicity against murine mammary carcinoma EMT6 cell lines for 4 hr at pH-7.4. As to conditions: Mus musculus, EMT6, 4 h.
The test system of another assay is UV4. The experiment in a line: Compound was evaluated for cytotoxicity against CHO UV4 cell lines for 4 hr at pH-7.4. As to conditions: Cricetulus griseus, UV4, 4 h.

For the molecule `CNc1ccc2c(c1)N(C(=O)c1cc3cc(OC)c(OC)c(OC)c3[nH]1)CC2CCl` (configuration not stated), the half-inhibitory concentration (IC50) in the assay on CHO-AA8 came out at 0.22 µM; with EMT6, 0.11 µM; in the assay with UV4, 0.055 µM.

Consider `CS(=O)(=O)N1CC(CCl)c2ccc(S)cc21` (configuration not stated), for which the concentration for half-maximal inhibition (IC50) was over 200 µM with CHO-AA8, over 200 µM with EMT6 and 124 µM in the assay on UV4.

Consider `CSc1ccc2c(c1)N(S(C)(=O)=O)CC2CCl` (configuration not stated), for which the IC50 in the assay with CHO-AA8, in the assay with EMT6 and with UV4 was over 200 µM throughout.

In the case of `CNc1ccc2c(c1)N(S(C)(=O)=O)CC2CCl` (configuration not stated), the IC50 turned out to be 50 µM with CHO-AA8, 13 µM in the assay on EMT6 and 4.1 µM in the assay on UV4.

For the molecule `COc1cc2cc(C(=O)N3CC(CCl)c4ccc(N(C)C)cc43)[nH]c2c(OC)c1OC` (configuration not stated), the IC50 worked out at 0.28 µM in the assay on CHO-AA8, 0.11 µM in the assay on EMT6 and 0.088 µM in the assay on UV4.

For `COc1cc2cc(C(=O)N3CC(CCl)c4ccc(N)cc43)[nH]c2c(OC)c1OC` (configuration not stated), the IC50 in the assay on CHO-AA8 came to 0.32 µM; in the assay with UV4, 0.059 µM.

On to `CS(=O)(=O)N1CC(CCl)c2ccc(O)cc21` (configuration not stated), for which the results for the IC50 in the assay on CHO-AA8, in the assay with EMT6 and in the assay on UV4 were 20 µM, 7.7 µM and 1.9 µM, respectively.

Consider `CS(=O)(=O)N1CC(CCl)c2ccc(SSc3ccc4c(c3)N(S(C)(=O)=O)CC4CCl)cc21` (configuration not stated), for which the IC50 in the assay on CHO-AA8, with EMT6 and in the assay with UV4 was over 50 µM throughout.

Regarding `CN(C)c1ccc2c(c1)N(S(C)(=O)=O)CC2CCl` (configuration not stated), the 50% inhibitory concentration (IC50) in the assay with CHO-AA8 worked out at 72 µM; with EMT6 it was 20 µM; in the assay with UV4 it was 15 µM.

Consider `CS(=O)(=O)N1CC(CCl)c2ccc(N)cc21` (configuration not stated), for which the IC50 with CHO-AA8 amounted to 158 µM; in the assay on EMT6, 33 µM; in the assay with UV4, 13 µM.

Regarding `COc1cc2cc(C(=O)N3CC(CCl)c4ccc(O)cc43)[nH]c2c(OC)c1OC` (configuration not stated), the values for the concentration for half-maximal inhibition (IC50) in the assay with CHO-AA8, in the assay on EMT6 and in the assay with UV4 were 0.0065 µM, 0.0022 µM and 0.001 µM, respectively.
